The results in this text go back to patent publication US9868763B2, “Modulators of protease activated receptors” (The University of Queensland, priority 2011, dated 2018).

The target in experiment [1] is T1, PAR2 (Homo sapiens, UniProt P55085).
T1 sequence (P55085 26-397): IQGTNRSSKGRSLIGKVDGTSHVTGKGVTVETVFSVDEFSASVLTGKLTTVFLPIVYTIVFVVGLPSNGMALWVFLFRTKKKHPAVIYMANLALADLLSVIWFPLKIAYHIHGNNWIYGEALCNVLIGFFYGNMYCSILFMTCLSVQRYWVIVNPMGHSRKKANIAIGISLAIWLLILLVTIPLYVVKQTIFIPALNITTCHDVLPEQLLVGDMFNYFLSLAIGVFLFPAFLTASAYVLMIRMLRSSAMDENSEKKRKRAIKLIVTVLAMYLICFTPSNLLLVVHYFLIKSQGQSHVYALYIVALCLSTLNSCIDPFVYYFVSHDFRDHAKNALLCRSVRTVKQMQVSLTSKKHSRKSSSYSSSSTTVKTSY
The experiment in a line: PAR2 agonist inhibition (antagonism): intracellular Ca2+ release in HT29 cells. It counts as cell-based. As to conditions: other ligands; inhibiting Ca2+ release in HT29 cells; 30 min pre-incubation, agonist at EC80. Details: endogenous in cells; host or cells: HT29 (human colorectal adenocarcinoma). Here is the method: Cells are seeded overnight in 96-well black walled, clear bottomed, plate at approximately 2×10^4 to 4×10^5 cells per well. […] The cells are then washed twice with HBSS and transferred to a Polarstar spectrofluorimeter (BMG, Durham N.C.).
The cells are prepared as outlined above then treated with the ‘putative’ antagonist 30 min prior to the addition of either trypsin or a synthetic agonist at a concentration equal to the agonists EC80.
The cells were then treated with 1 μM of the PAR2 agonist 2f-LIGRLO-NH2 (FIG. 2A, n=5) or 100 nM Trypsin (FIG. 2B, n=1). Each data point represents mean±SEM. Net changes in fluorescence were calculated as a percentage relative to the maximum response given 1 μM 2f-LIGRLO-NH2 or 100 nM Trypsin. Changes in fluorescence (% response) were plotted against logarithmic compound concentrations. The half maximal inhibitory concentration (IC50) values were derived from the dose response curve using a nonlinear regression curve in Graphpad Prism v5.

Experiment [2] deals with β-tryptase-induced paw oedema. As to the kind of experiment: β-tryptase-induced paw oedema. It counts as in vivo, Wistar rat. The protocol: (§1) Based on previous methods (Kelso E B et al., J Pharmacol Exp Ther 2006, 316(3):1017-24; Suen J Y et al., Br J Pharmacol 2011, doi: 10.1111/j.1476-5381.2011.01610.x.), PAR2 antagonist 52 (10 mg/kg s.c.; n=4), ENMD-1068 (100 mg/kg s.c.; n=4) or vehicle control (DMSO s.c.; n=2) were administered to male Wistar rats. Baseline paw thickness and width were measured using digital calipers (World Precision Instruments, USA) expressed in area (mm^2; thickness×width). Fifteen minutes later, 2Furoyl-LIGLRO-NH2 (350 μg/paw in 100 μL saline) was injected into of the right hind paw pad (intraplantar, i.pl.). The left hind paw acted as a control, receiving saline only. In a separate experiment, vehicle (500 μL olive oil) versus PAR2 antagonist 52 (10 mg/kg p.o. in 500 μL olive oil) only were administered orally to two groups of rats (4 per group). Two hours later, β-tryptase (human recombinant lung, 20 μg in 100 μL saline) was injected into the right hind paw pad (vehicle in left for control) of all animals in each group. In all experiments, paw swelling was measured and expressed in area (mm^2; thickness×width) and plotted as % change from baseline of each individual paw.

For experiment [3], the system named is 2furoyl-LIGRLO-NH2-induced paw oedema. As to the kind of experiment: PAR2 agonist-induced paw oedema. It counts as in vivo, Wistar rat. The protocol: The methods used are based on those previously described (Kelso, E. B., et al. Arthritis Rheum 2007, 56, 765-71; Kelso, E. B., et al. J Pharmacol Exp Ther 2006, 316, 1017-24; and Vergnolle, N. J Immunol 1999, 163, 5064-9). Male Wistar rats (n=3 per group) are used. Briefly, rats are given either 5 or 10 mg/kg of a compound of the present invention (p.o. via gavage in olive oil, approx. 500 μL, weight adjusted). Control animals receive only olive oil (500 μL p.o.). Two hours later, the PAR2 agonist 2-furoyl-LIGRLO (350 μg/paw in saline, 100 μL) is injected into the plantar surface (i.pl.) of the right paw pad using a 30 G needle. The left paw acts as a control, receiving saline only. Paw thickness and width are measured after 30 minutes and hourly using digital calipers (World Precision Instruments, USA) and swelling is calculated in area (mm^2; thickness multiplied by width) and expressed as a percentage change from baseline of each individual paw.
as §1

Experiment [4] deals with T1, PAR2. The experiment in a line: PAR2-induced intracellular Ca2+ release in human macrophages. It counts as cell-based. The arrangement: endogenous in cells.
Text: Peripheral blood mononuclear cells were isolated from buffy coat (Australian Red Cross, Kelvin Grove, QLD) using Ficoll-paque density centrifugation (GE Healthcare Bio-Science, Uppsala, Sweden). CD14^+ monocytes were positively selected using CD14^+ MACS magnetic beads (Miltenyi Biotech, Auburn, Calif., USA). Monocytes were differentiated to HMDM in complete media using M-CSF (PeptroTech Inc, Rocky Hill, N.J., USA). HMDM were supplemented with 50% fresh complete medium containing CSF-1 on Day 5 after seeding and re-plated for use on Day 7.
The subject of experiment [5] is TNBS-induced chronic colitis. The experiment in a line: TNBS-induced chronic colitis model. The following applies: sulfasalazine 100 mg/kg/day p.o. It counts as in vivo, rat. The protocol:
On day 0, rats were weighed, given respective treatments of either sulfasalazine (100 mg/kg in olive oil p.o.), compound 52 (10 mg/kg in olive oil), or vehicle (500 l olive oil p.o.), and fasted for 24 h with water supplied ad libitum. The next day (day 1), rats were weighed, dosed with respective compound, and anesthetized with isofluorane. A polyethylene catheter was inserted intrarectally (8 cm). Control and drug-treated animals received an intracolonic dose of TNBS (80 mg/kg in saline and 250 l, 50% ethanol in water) (Fiorucci at al., 2001). Sham animals received vehicle only, with TNBS replaced by equivolume water. Rats were maintained in an inclined position (40°) for 30 min, then allowed to recover with food and water supplied. Rats were dosed daily with the respective compound, weighed, and scored for general health and disease progression. All rats were sacrificed on day 8 of experimentation unless they were sacrificed earlier. Disease progression and post-mortem colonic histopathology was scored by the following methods. PAR2 and tryptase co-localization were investigated by using immunohistochemistry.
DAI for both acute and chronic models was assessed and scored by an expert blinded to treatments. Scores incorporated mobility, gastrointestinal pathology, discomfort, and generalized sickness behaviour criteria (each scored 0-3). Any animal that reached stage 3 in any criteria was euthanized by CO2 inhalation and recorded as a disease-related mortality. Scores were summed and expressed as total disease score (maximum 12). DAI was measured at endpoint only (10 h) in the acute study and daily in the chronic TNBS study.
Colons were dissected post-mortem and given a macroscopic disease score based on that described previously (Bobin-Dubigeon et al., 2001) with some minor alterations (maximal score 14). The entire colon length was removed between the ileocolic and colorectal junction. Length and maximal distension width were measured. Sections of affected colon were taken for biochemical analysis, histology, and wet/dry weight.

“Also recorded” adds a separate entry of the source.

Take `CC[C@H](C)[C@@H](NC(=O)[C@H](CC1CCCCC1)NC(=O)c1ccno1)C(=O)N1CCC2(C=Cc3ccccc32)CC1` [Compound 52]: the IC50 – broadly, the point on the concentration scale where inhibition reaches its midpoint – in experiment [1] was found to be 1000 nM. The “paw oedema induced by β-tryptase” value in experiment [2] (10 mg/kg p.o. in olive oil, β-tryptase 20 μg/paw 2 h later) is recorded as “reduced paw oedema; also recorded: prevented the oedema; also recorded: strongly inhibited”. The “β-tryptase-induced mast cell degranulation in the extrasynovium” value in experiment [2] (10 mg/kg pretreatment) is given as “ameliorated; also recorded: prevented”. Besides, the “paw oedema induced by other PAR2 agonists, e.g. trypsin, SLIGRL-NH2 and GB110” value in experiment [3] (recently found) is given as “inhibit paw oedema”. For the same compound, in experiment [3] (s.c., 52 10 mg/kg, ENMD-1068 100 mg/kg, agonist 350 μg/paw), the “paw oedema induced by 2furoyl-LIGRLO-NH2” value is recorded as “reduced the paw oedema; also recorded: strongly reduce the paw oedema”. Also, the “PAR2 antagonist potency relative to ENMD-1068” value in experiment [4] came out at 1000 fold. In experiment [5] (52 10 mg/kg/day p.o.), the “chronic colitis: mortality and pathology (colon obstruction, ulceration, wall thickness, myeloperoxidase release)” value is “ameliorated; also recorded: more effectively than the clinically used drug sulfasalazine”. The compound also registered a TNBS-mediated mortality in experiment [5] (52 10 mg/kg/day) of 8.3%. The “DAI compared with TNBS-controls” value in experiment [5] (from day 2 onward, 52 10 mg/kg/day) was “marked improvements in DAI; also recorded: almost complete recovery”.
